Our source for the remaining target (mRNA or protein) (fraction of control) values is the OligoGym collection.

These antisense oligonucleotides have a phosphorothioate backbone; sugars and methylation of C are not fully specified. Bounds are passed on as bounds.
Further: test concentration or dose not given here.

For one data set, the target named is DUSP8. The following applies: ASO.
As to TGCCCATGGTCTTCATGATG, the remaining target (mRNA or protein) (fraction of control) is 0.7.

Regarding ATCAGATCCTTGTTTAGGAC, the remaining target (mRNA or protein) (fraction of control) was ≥ 1.

Regarding GCTGGACCTCGCTCGCGCTC, the remaining target (mRNA or protein) (fraction of control) is ≥ 1.

Take GAGAGCTTGGCTTTATCGAT: the remaining target (mRNA or protein) (fraction of control) came out at 0.68.

As for CCGACGGGCTGTCCAGCTTG, the remaining target (mRNA or protein) (fraction of control) was found to be 0.94.

As for CAGGGCGGCCAGCAGCTTCA, the remaining target (mRNA or protein) (fraction of control) was ≥ 1.

For the sequence GCCTGTCCTTCACGAACCTG, the remaining target (mRNA or protein) (fraction of control) is ≥ 1.

Turning to TGGTCATAGACCACCACGTC, the remaining target (mRNA or protein) (fraction of control) was ≥ 1.

Consider TTTCACAGTAGTTGTCGTTG, for which the remaining target (mRNA or protein) (fraction of control) was ≥ 1.

In turn, CACCATGCCCTCCTCGAACT registered a remaining target (mRNA or protein) (fraction of control) of 0.84.

With GTCGAAGCAGCCGTCCAGCT, the remaining target (mRNA or protein) (fraction of control) is ≥ 1.

For the sequence GTAGGTGGTGGCAGCCGTGG, the remaining target (mRNA or protein) (fraction of control) is ≥ 1.

TTGCTGGCGTTGAGGACGTA had a remaining target (mRNA or protein) (fraction of control) of 0.45.

Regarding TCACCTTGCCCTGCTGCAGC, the remaining target (mRNA or protein) (fraction of control) is 0.33.

As for AGAGCGGGAGATGCCAGCCA, the remaining target (mRNA or protein) (fraction of control) came to 0.32.

TCTGCCGGGCCGCATCGCCG returned a remaining target (mRNA or protein) (fraction of control) of 0.35.

As for AGCAGATGTTGACGGAGCTG, the remaining target (mRNA or protein) (fraction of control) was ≥ 1.

As for GGCTGCTCCGACGGCCCAGG, the remaining target (mRNA or protein) (fraction of control) was ≥ 1.

With CAGGCTTGCCCTCGCAGAGG, the remaining target (mRNA or protein) (fraction of control) is ≥ 1.

On to CCTCAGGCGCGGCGTCCGGG, for which the remaining target (mRNA or protein) (fraction of control) is ≥ 1.

Sequence GAGCTCGAGGACCACCCGCA returned a remaining target (mRNA or protein) (fraction of control) of 0.89.

Take GGCAGGCAGGGCTGGGAGAG: the remaining target (mRNA or protein) (fraction of control) is ≥ 1.

CGCCCGCCCGGCCGAAGGGC yielded a remaining target (mRNA or protein) (fraction of control) of 0.86.

With GGGCAGCCCGGGCGCCGACA, the remaining target (mRNA or protein) (fraction of control) was found to be 0.81.

AAGCTGTCTGCGGCCAGCAC: the remaining target (mRNA or protein) (fraction of control) turned out to be 0.71.

TCGCCTGCTTGCCCAGGGCG came in with a remaining target (mRNA or protein) (fraction of control) of 0.69.

With CTCAGGCCGCCCTCCCTGGC, the remaining target (mRNA or protein) (fraction of control) is 0.65.

In the case of GGAGAAGGAGCGCTTGAGGC, the remaining target (mRNA or protein) (fraction of control) was determined as 0.98.

Regarding ACCTGGCTGCGTGCAGCCGG, the remaining target (mRNA or protein) (fraction of control) was ≥ 1.

AGCTGGCCCAGGAAGTTGAA came in with a remaining target (mRNA or protein) (fraction of control) of 0.95.

TTCTTTGCATTATATATAAT: the remaining target (mRNA or protein) (fraction of control) was ≥ 1.

In a further data set the target is PIK3CB. As to conditions: ASO.
On to CTGGAAGAAAAGGTCTGACA, for which the remaining target (mRNA or protein) (fraction of control) was ≥ 1.

Take CAGCGCAAAGAGAGTGATGA: the remaining target (mRNA or protein) (fraction of control) is ≥ 1.

With ACTGGATATAAATCCCAGTG, the remaining target (mRNA or protein) (fraction of control) is ≥ 1.

Regarding GATCCTTCAAGGAATCAAAT, the remaining target (mRNA or protein) (fraction of control) turned out to be 0.91.

ACCAGCCCTGACATGAACTT gave a remaining target (mRNA or protein) (fraction of control) of 0.45.

For the sequence TATTGAGAAAGTTCTTCATC, the remaining target (mRNA or protein) (fraction of control) was 0.86.

On to ATGCAAACATATAGGAGTCA, for which the remaining target (mRNA or protein) (fraction of control) was ≥ 1.

For the sequence AGGTATGGAGCCATCAGATG, the remaining target (mRNA or protein) (fraction of control) is ≥ 1.

GGCCAAATCTGAAGCAGCGC: the remaining target (mRNA or protein) (fraction of control) is ≥ 1.

On to CACACAGTTCCGGATATACT, for which the remaining target (mRNA or protein) (fraction of control) is ≥ 1.

Take CTTCCCATGAATAGTCAAAC: the remaining target (mRNA or protein) (fraction of control) was 0.53.

TACATTTTCTTGATCTTGCA: the remaining target (mRNA or protein) (fraction of control) is ≥ 1.

Sequence ATTAGTGGATGATCACCAAA displayed a remaining target (mRNA or protein) (fraction of control) of 0.99.

For CCATAACATCTGCTTAATAT, the remaining target (mRNA or protein) (fraction of control) was ≥ 1.

Turning to CACCGCCCAGATGTCAAGGA, the remaining target (mRNA or protein) (fraction of control) amounted to 0.5.
